Results as given in ChEMBL document CHEMBL3885881, “DrugMatrix”.

Species: Rattus norvegicus
Test: DrugMatrix - Regimen: Daily Repeat
Format: toxicity, organism-based, Sprague-Dawley
Design: regimen Daily Repeat, gender Male, age 6-8 weeks
Settings: in vivo, po, route oral GAVAGE, […]; for ABSOLUTE BASOPHIL / ABSOLUTE EOSINOPHIL / ABSOLUTE LYMPHOCYTE / ABSOLUTE MONOCYTE / ABSOLUTE SEGMENTED NEUTROPHIL / BASOPHIL / EOSINOPHIL / ERYTHROCYTE COUNT / HEMATOCRIT / HEMOGLOBIN / LEUKOCYTE COUNT / LYMPHOCYTE / MEAN CORPUSCULAR HEMOGLOBIN / MEAN CORPUSCULAR HEMOGLOBIN CONCENTRATION / MEAN CORPUSCULAR VOLUME / MONOCYTE / NEUTROPHIL / NUCLEATED RED BLOOD CELLS / PLATELET COUNT: tissue Blood; for ALANINE AMINOTRANSFERASE / ALBUMIN / ALKALINE PHOSPHATASE / ASPARTATE AMINOTRANSFERASE / BLOOD UREA NITROGEN / CARBON DIOXIDE / CHLORIDE / CHOLESTEROL / CREATINE PHOSPHOKINASE / CREATININE / GLUCOSE / LACTATE DEHYDROGENASE / LIPASE / PHOSPHORUS / POTASSIUM / SODIUM / TOTAL BILIRUBIN / TOTAL PROTEIN / URIC ACID: tissue Plasma
[1] = 0 mg/kg, 72 h, dose level Control, time 3 day
[2] = 0 mg/kg, dose level Control, time 7 day
[3] = 400 mg/kg, 72 h, dose level Low, time 3 day

## ClC(Cl)(Cl)Cl [CARBON TETRACHLORIDE]
[1]
  ABSOLUTE BASOPHIL: 0 CELLS/uL
  ABSOLUTE EOSINOPHIL: 47.5 CELLS/uL
  ABSOLUTE LYMPHOCYTE: 9600.67 CELLS/uL
  ABSOLUTE MONOCYTE: 195.5 CELLS/uL
  ABSOLUTE SEGMENTED NEUTROPHIL: 839.67 CELLS/uL
  BASOPHIL: 0%
  EOSINOPHIL: 0.5%
  ERYTHROCYTE COUNT: 5.26 x10E6/uL
  HEMATOCRIT: 34.48%
  HEMOGLOBIN: 12.77 G/DL
  LEUKOCYTE COUNT: 10.68 x10E3/uL
  LYMPHOCYTE: 89.67%
  MEAN CORPUSCULAR HEMOGLOBIN: 24.3 pg
  MEAN CORPUSCULAR HEMOGLOBIN CONCENTRATION: 37.05 G/DL
  MEAN CORPUSCULAR VOLUME: 65.62 fL
  MONOCYTE: 1.83%
  NEUTROPHIL: 8%
  NUCLEATED RED BLOOD CELLS: 0.17 /100WBC
  PLATELET COUNT: 1038.67 x10E3/uL
  ALANINE AMINOTRANSFERASE: 65.17 u/L
  ALBUMIN: 4.2 G/DL
  ALKALINE PHOSPHATASE: 377.5 u/L
  ASPARTATE AMINOTRANSFERASE: 90.5 u/L
  BLOOD UREA NITROGEN: 13.5 mg/dL
  CARBON DIOXIDE: 31.17 mmol/L
  CHLORIDE: 98.33 MEQ/L
  CHOLESTEROL: 66.33 mg/dL
  CREATINE PHOSPHOKINASE: 478.83 u/L
  CREATININE: 0.19 mg/dL
  GLUCOSE: 155.17 mg/dL
  LACTATE DEHYDROGENASE: 107.5 u/L
  LIPASE: 10.33 u/L
  PHOSPHORUS: 9.25 mg/dL
  POTASSIUM: 5.43 MEQ/L
  SODIUM: 142.05 MEQ/L
  TOTAL BILIRUBIN: 0.12 mg/dL
  TOTAL PROTEIN: 5.95 G/DL
  URIC ACID: 0.62 mg/dL
[2]
  ABSOLUTE BASOPHIL: 0 CELLS/uL
  ABSOLUTE EOSINOPHIL: 43.5 CELLS/uL
  ABSOLUTE LYMPHOCYTE: 9369.83 CELLS/uL
  ABSOLUTE MONOCYTE: 196.17 CELLS/uL
  ABSOLUTE SEGMENTED NEUTROPHIL: 723.83 CELLS/uL
  BASOPHIL: 0%
  EOSINOPHIL: 0.5%
  ERYTHROCYTE COUNT: 5.09 x10E6/uL
  HEMATOCRIT: 32.42%
  HEMOGLOBIN: 13.1 G/DL
  LEUKOCYTE COUNT: 10.33 x10E3/uL
  LYMPHOCYTE: 90.83%
  MEAN CORPUSCULAR HEMOGLOBIN: 25.75 pg
  MEAN CORPUSCULAR HEMOGLOBIN CONCENTRATION: 40.43 G/DL
  MEAN CORPUSCULAR VOLUME: 63.62 fL
  MONOCYTE: 1.67%
  NEUTROPHIL: 7%
  NUCLEATED RED BLOOD CELLS: 0 /100WBC
  PLATELET COUNT: 1106.5 x10E3/uL
  ALANINE AMINOTRANSFERASE: 48.67 u/L
  ALBUMIN: 4.13 G/DL
  ALKALINE PHOSPHATASE: 275.17 u/L
  ASPARTATE AMINOTRANSFERASE: 73.17 u/L
  BLOOD UREA NITROGEN: 13.17 mg/dL
  CARBON DIOXIDE: 27.5 mmol/L
  CHLORIDE: 99.67 MEQ/L
  CHOLESTEROL: 60.83 mg/dL
  CREATINE PHOSPHOKINASE: 213 u/L
  CREATININE: 0.2 mg/dL
  GLUCOSE: 166.67 mg/dL
  LACTATE DEHYDROGENASE: 94.5 u/L
  LIPASE: 10.5 u/L
  PHOSPHORUS: 9.98 mg/dL
  POTASSIUM: 5.3 MEQ/L
  SODIUM: 140.77 MEQ/L
  TOTAL BILIRUBIN: 0.15 mg/dL
  TOTAL PROTEIN: 5.88 G/DL
  URIC ACID: 0.82 mg/dL
[3]
  ABSOLUTE BASOPHIL: 0 CELLS/uL
  ABSOLUTE EOSINOPHIL: 68.67 CELLS/uL
  ABSOLUTE LYMPHOCYTE: 9955.17 CELLS/uL
  ABSOLUTE MONOCYTE: 295.83 CELLS/uL
  ABSOLUTE SEGMENTED NEUTROPHIL: 1063.67 CELLS/uL
  BASOPHIL: 0%
  EOSINOPHIL: 0.67%
  ERYTHROCYTE COUNT: 5.78 x10E6/uL
  HEMATOCRIT: 36.52%
  HEMOGLOBIN: 13.38 G/DL
  LEUKOCYTE COUNT: 11.38 x10E3/uL
  LYMPHOCYTE: 87.5%
  MEAN CORPUSCULAR HEMOGLOBIN: 23.22 pg
  MEAN CORPUSCULAR HEMOGLOBIN CONCENTRATION: 36.7 G/DL
  MEAN CORPUSCULAR VOLUME: 63.22 fL
  MONOCYTE: 2.67%
  NEUTROPHIL: 9.17%
  NUCLEATED RED BLOOD CELLS: 0 /100WBC
  PLATELET COUNT: 836.5 x10E3/uL
  ALANINE AMINOTRANSFERASE: 112.17 u/L
  ALBUMIN: 3.92 G/DL
  ALKALINE PHOSPHATASE: 474.67 u/L
  ASPARTATE AMINOTRANSFERASE: 154.33 u/L
  BLOOD UREA NITROGEN: 15.5 mg/dL
  CARBON DIOXIDE: 31.67 mmol/L
  CHLORIDE: 101 MEQ/L
  CHOLESTEROL: 43.17 mg/dL
  CREATINE PHOSPHOKINASE: 313.5 u/L
  CREATININE: 0.21 mg/dL
  GLUCOSE: 143.17 mg/dL
  LACTATE DEHYDROGENASE: 105 u/L
  LIPASE: 12 u/L
  PHOSPHORUS: 9.75 mg/dL
  POTASSIUM: 5.51 MEQ/L
  SODIUM: 145.37 MEQ/L
  TOTAL BILIRUBIN: 0.1 mg/dL
  TOTAL PROTEIN: 5.6 G/DL
  URIC ACID: 0.52 mg/dL
